System: H37Rv S315T (KatG mutant)
Assay type: cell-based, Mycobacterium tuberculosis

NNC(=O)c1ccncc1 [INH, Isoniazid]
dependence of activity on KatG: dependent upon KatG

— US9579381B2 (priority 2012, dated 2017)
